Data on one compound can be found in paper PMC12621367, “Salvianolic acid C inhibits methane emissions in dairy cows by targeting MCR and reshaping the rumen microbial community” (Journal of Animal Science and Biotechnology, 2025).

The test deals with T1, Methyl-coenzyme M reductase (MCR).
T1 construct: gene mcrA; with McrB and McrG (β and γ subunits)
The test is described as follows: MCR activity inhibition with a microbial MCR ELISA kit, dose-response, OD […] nm. The class given is biochemical, Methanothermobacter marburgensis. A general note: An ELISA detects its analyte on a solid surface through an enzyme-linked reagent.

Usually IC50 stands for the concentration at which inhibition is half-maximal. Read a high IC50 as a need for much substance. Compound `O=C(/C=C/c1ccc(O)c2oc(-c3ccc(O)c(O)c3)cc12)O[C@H](Cc1ccc(O)c(O)c1)C(=O)O` [SAC, Salvianolic acid C] came in with an IC50 of 692 µM.
